# PubChem BioAssay AID1918944 (Molecular Pharmacology Branch, DTP, NCI, 2023)
# pIC50: −log10 of the molar value. Several values for one entry are separate records, joined by “and”; a condition that tells them apart may be missing. Equal values may be shown once. Activity calls are given as the source filed them. Rule for the calls: active = viability on the fitted dose curve at most 10% of control; inactive = the rest.
# System: 786-0 complex spheroid viability
# Assay: Anticancer human tumor 786-0 cell line growth inhibition;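 note: spheroids exposed to agents for seven days before readout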
# Details: for viability, T/C: stronger effect = lower value
# Method in brief: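 Complex spheroids of tumor cells with HUVEC and human MSCs, exposed to iadademstat combined with other agents. Each agent tested in half-log steps from near clinical Cmax (else 10 microM top), DMSO ≤0.25%.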
# [1] = curve of first compound, second compound 0.1 µM
# [2] = curve of first compound, second compound 0.316 µM
# [3] = curve of first compound, second compound 1 µM
# [4] = curve of first compound, second compound 3.16 µM
# [5] = curve of first compound, second compound 10 µM
# [6] = second compound 0.1 µM, first compound 0.00316 µM
# [7] = second compound 0.1 µM, first compound 0.01 µM
# [8] = second compound 0.1 µM, first compound 0.0316 µM
# [9] = second compound 0.1 µM, first compound 0.1 µM
# [10] = second compound 0.316 µM, first compound 0.00316 µM
# [11] = second compound 0.316 µM, first compound 0.01 µM
# [12] = second compound 0.316 µM, first compound 0.0316 µM
# [13] = second compound 0.316 µM, first compound 0.1 µM
# [14] = second compound 1 µM, first compound 0.00316 µM
# [15] = second compound 1 µM, first compound 0.01 µM
# [16] = second compound 1 µM, first compound 0.0316 µM
# [17] = second compound 1 µM, first compound 0.1 µM
# [18] = second compound 3.16 µM, first compound 0.00316 µM
# [19] = second compound 3.16 µM, first compound 0.01 µM
# [20] = second compound 3.16 µM, first compound 0.0316 µM
# [21] = second compound 3.16 µM, first compound 0.1 µM
# [22] = second compound 10 µM, first compound 0.00316 µM
# [23] = second compound 10 µM, first compound 0.01 µM
# [24] = second compound 10 µM, first compound 0.0316 µM
# [25] = second compound 10 µM, first compound 0.1 µM
# [26] = second compound 0.1 µM, first compound 0.000949 µM
# [27] = second compound 0.1 µM, first compound 0.003 µM
# [28] = second compound 0.1 µM, first compound 0.00949 µM
# [29] = second compound 0.1 µM, first compound 0.03 µM
# [30] = second compound 0.1 µM, first compound 0.0949 µM
# [31] = second compound 0.1 µM, first compound 0.3 µM
# [32] = second compound 0.316 µM, first compound 0.000949 µM
# [33] = second compound 0.316 µM, first compound 0.003 µM
# [34] = second compound 0.316 µM, first compound 0.00949 µM
# [35] = second compound 0.316 µM, first compound 0.03 µM
# [36] = second compound 0.316 µM, first compound 0.0949 µM
# [37] = second compound 0.316 µM, first compound 0.3 µM
# [38] = second compound 1 µM, first compound 0.000949 µM
# [39] = second compound 1 µM, first compound 0.003 µM
# [40] = second compound 1 µM, first compound 0.00949 µM
# [41] = second compound 1 µM, first compound 0.03 µM
# [42] = second compound 1 µM, first compound 0.0949 µM
# [43] = second compound 1 µM, first compound 0.3 µM
# [44] = second compound 3.16 µM, first compound 0.000949 µM
# [45] = second compound 3.16 µM, first compound 0.003 µM
# [46] = second compound 3.16 µM, first compound 0.00949 µM
# [47] = second compound 3.16 µM, first compound 0.03 µM
# [48] = second compound 3.16 µM, first compound 0.0949 µM
# [49] = second compound 3.16 µM, first compound 0.3 µM
# [50] = second compound 10 µM, first compound 0.000949 µM
# [51] = second compound 10 µM, first compound 0.003 µM
# [52] = second compound 10 µM, first compound 0.00949 µM
# [53] = second compound 10 µM, first compound 0.03 µM
# [54] = second compound 10 µM, first compound 0.0949 µM
# [55] = second compound 10 µM, first compound 0.3 µM
smiles,measurement,setting,value
CC(C)c1c(-c2ccccc2)nc2c(C#N)c[nH]n2c1=O,"viability, T/C",compound 0.0316 µM,105% and 103%
same,"viability, T/C",compound 0.1 µM,108% and 101%
same,"viability, T/C",compound 0.316 µM,99% and 105%
same,"viability, T/C",compound 1 µM,102% and 105%
same,"viability, T/C",compound 3.16 µM,104% and 110%
same,"viability, T/C",compound 10 µM,102% and 103%
same,pIC50,curve of compound,< 5.00
NS(=O)(=O)OCC1CC(n2ccc3c(NC4CCc5ccccc54)ncnc32)CC1O (centres undefined),"viability, T/C",compound 0.00949 µM,99.2% and 89.2%
same,"viability, T/C",compound 0.03 µM,84.4% and 87.8%
same,"viability, T/C",compound 0.0949 µM,66.8% and 85.6%
same,"viability, T/C",compound 0.3 µM,23.5% and 34.7%
same,"viability, T/C",compound 0.949 µM,6.87% and 15.1%
same,"viability, T/C",compound 3 µM,6.08% and 15.5%
same,pIC50,curve of compound,6.84 and 6.67
CC(C)CC(NC(=O)C(Cc1ccccc1)NC(=O)c1cnccn1)B(O)O (centres undefined) + NC1CCC(NC2CC2c2ccccc2)CC1,pIC50,[1],8.55
same,pIC50,[2],8.59
same,pIC50,[3],8.59
same,pIC50,[4],8.65
same,pIC50,[5],8.71
same,"viability, T/C","second compound 0.1 µM, first compound 0.000316 µM",122%
same,"viability, T/C","second compound 0.1 µM, first compound 0.001 µM",114%
same,"viability, T/C",[6],42.6%
same,"viability, T/C",[7],2.11%
same,"viability, T/C",[8],0.17%
same,"viability, T/C",[9],0.14%
same,"viability, T/C","second compound 0.316 µM, first compound 0.000316 µM",115%
same,"viability, T/C","second compound 0.316 µM, first compound 0.001 µM",110%
same,"viability, T/C",[10],36.6%
same,"viability, T/C",[11],3.06%
same,"viability, T/C",[12],0.46%
same,"viability, T/C",[13],0.16%
same,"viability, T/C","second compound 1 µM, first compound 0.000316 µM",117%
same,"viability, T/C","second compound 1 µM, first compound 0.001 µM",113%
same,"viability, T/C",[14],35.9%
same,"viability, T/C",[15],6.05%
same,"viability, T/C",[16],0.96%
same,"viability, T/C",[17],0.23%
same,"viability, T/C","second compound 3.16 µM, first compound 0.000316 µM",106%
same,"viability, T/C","second compound 3.16 µM, first compound 0.001 µM",102%
same,"viability, T/C",[18],28.2%
same,"viability, T/C",[19],5.87%
same,"viability, T/C",[20],0.76%
same,"viability, T/C",[21],0.29%
same,"viability, T/C","second compound 10 µM, first compound 0.000316 µM",92.1%
same,"viability, T/C","second compound 10 µM, first compound 0.001 µM",86.1%
same,"viability, T/C",[22],24%
same,"viability, T/C",[23],3.66%
same,"viability, T/C",[24],1.18%
same,"viability, T/C",[25],0.23%
Nc1ccn(C2OC(CO)C(O)C2(F)F)c(=O)n1 (centres undefined),"viability, T/C",compound 0.000949 µM,10.4% and 19.8%
same,"viability, T/C",compound 0.003 µM,4.3% and 7%
same,outcome,compound 0.00949 µM,active
same,"viability, T/C",compound 0.00949 µM,4.25%
same,"viability, T/C",compound 0.03 µM,4.55% and 6.65%
same,"viability, T/C",compound 0.0949 µM,4.92% and 6.2%
same,"viability, T/C",compound 0.3 µM,6.14% and 6.43%
same,pIC50,curve of compound,> 9.02
Nc1ncn(C2CC(O)C(CO)S2)c(=O)n1 (centres undefined) + NC1CC1c1ccc(-c2cccc(O)c2)cc1,pIC50,[1],6.67
same,pIC50,[2],< 6.52
same,pIC50,[3],6.59
same,pIC50,[4],6.60
same,pIC50,[5],< 6.52
same,"viability, T/C",[26],117%
same,"viability, T/C",[27],114%
same,"viability, T/C",[28],113%
same,"viability, T/C",[29],99%
same,"viability, T/C",[30],81.5%
same,"viability, T/C",[31],37.6%
same,"viability, T/C",[32],116%
same,"viability, T/C",[33],121%
same,"viability, T/C",[34],112%
same,"viability, T/C",[35],106%
same,"viability, T/C",[36],86.8%
same,"viability, T/C",[37],51%
same,"viability, T/C",[38],121%
same,"viability, T/C",[39],110%
same,"viability, T/C",[40],110%
same,"viability, T/C",[41],100%
same,"viability, T/C",[42],83.2%
same,"viability, T/C",[43],44%
same,"viability, T/C",[44],111%
same,"viability, T/C",[45],109%
same,"viability, T/C",[46],102%
same,"viability, T/C",[47],102%
same,"viability, T/C",[48],79.3%
same,"viability, T/C",[49],44.2%
same,"viability, T/C",[50],93.3%
same,"viability, T/C",[51],100%
same,"viability, T/C",[52],95.1%
same,"viability, T/C",[53],95.2%
same,"viability, T/C",[54],81.3%
same,"viability, T/C",[55],53.9%
O=C(C=Cn1cnc(-c2cc(C(F)(F)F)cc(C(F)(F)F)c2)n1)NNc1cnccn1,"viability, T/C",compound 0.00316 µM,90.7% and 92.3%
same,"viability, T/C",compound 0.01 µM,61.1% and 63.3%
same,"viability, T/C",compound 0.0316 µM,39.5% and 47.2%
same,"viability, T/C",compound 0.1 µM,29% and 39.9%
same,"viability, T/C",compound 0.316 µM,20.6% and 32.5%
same,"viability, T/C",compound 1 µM,15.3% and 25.6%
same,pIC50,curve of compound,7.73 and 7.56
COc1cc(Nc2ncc3c(n2)-c2ccc(Cl)cc2C(c2c(F)cccc2OC)=NC3)ccc1C(=O)O + NC1CCC(NC2CC2c2ccccc2)CC1,pIC50,[1],6.22
same,pIC50,[2],6.32
same,pIC50,[3],6.35
same,pIC50,[4],6.63
same,pIC50,[5],6.93
same,"viability, T/C",[6],114%
same,"viability, T/C",[7],97.2%
same,"viability, T/C",[8],80.7%
same,"viability, T/C",[9],68.8%
same,"viability, T/C","second compound 0.1 µM, first compound 0.316 µM",57.1%
same,"viability, T/C","second compound 0.1 µM, first compound 1 µM",44.5%
same,"viability, T/C",[10],116%
same,"viability, T/C",[11],93.2%
same,"viability, T/C",[12],73.2%
same,"viability, T/C",[13],65.9%
same,"viability, T/C","second compound 0.316 µM, first compound 0.316 µM",54.1%
same,"viability, T/C","second compound 0.316 µM, first compound 1 µM",43.7%
same,"viability, T/C",[14],108%
same,"viability, T/C",[15],91%
same,"viability, T/C",[16],71.8%
same,"viability, T/C",[17],66.9%
same,"viability, T/C","second compound 1 µM, first compound 0.316 µM",53.9%
same,"viability, T/C","second compound 1 µM, first compound 1 µM",42.5%
same,"viability, T/C",[18],102%
same,"viability, T/C",[19],82%
same,"viability, T/C",[20],60.3%
same,"viability, T/C",[21],59.1%
same,"viability, T/C","second compound 3.16 µM, first compound 0.316 µM",51%
same,"viability, T/C","second compound 3.16 µM, first compound 1 µM",40.6%
same,"viability, T/C",[22],80.2%
same,"viability, T/C",[23],64.9%
same,"viability, T/C",[24],53.2%
same,"viability, T/C",[25],56.4%
same,"viability, T/C","second compound 10 µM, first compound 0.316 µM",46.4%
same,"viability, T/C","second compound 10 µM, first compound 1 µM",39.7%
Nc1ccn(C2OC(CO)C(O)C2(F)F)c(=O)n1 (centres undefined) + NC1CC1c1ccc(-c2cccc(O)c2)cc1,pIC50,[1],> 9.02
same,pIC50,[2],> 9.02
same,pIC50,[3],> 9.02
same,pIC50,[4],> 9.02
same,pIC50,[5],> 9.02
same,"viability, T/C",[26],10.3%
same,"viability, T/C",[27],2.49%
same,outcome,[28],active
same,"viability, T/C",[29],2.95%
same,"viability, T/C",[30],3.87%
same,"viability, T/C",[31],4.12%
same,"viability, T/C",[32],9.54%
same,"viability, T/C",[33],2.66%
same,outcome,[34],active
same,"viability, T/C",[35],2.74%
same,"viability, T/C",[36],4.19%
same,"viability, T/C",[37],3.51%
same,"viability, T/C",[38],7.42%
same,"viability, T/C",[39],2.53%
same,outcome,[40],active
same,"viability, T/C",[41],2.64%
same,"viability, T/C",[42],3.23%
same,"viability, T/C",[43],4%
same,"viability, T/C",[44],9.36%
same,"viability, T/C",[45],2.32%
same,outcome,[46],active
same,"viability, T/C",[47],2.75%
same,"viability, T/C",[48],3.87%
same,"viability, T/C",[49],6.57%
same,"viability, T/C",[50],7.48%
same,"viability, T/C",[51],3.61%
same,outcome,[52],active
same,"viability, T/C",[53],2.69%
same,"viability, T/C",[54],3.6%
same,"viability, T/C",[55],4.45%
